Reference: US7495027B2, “3-aryl-4-hydroxyfuranone compounds and the human and animal health use thereof” (Wyeth, priority 2003, dated 2009)
≈ marks a conversion by molar mass, not a printed value. Like-named read-outs stand apart in the source and are kept apart here.

Legend:
Streptococci = experiment: Minimum inhibitory concentration, microdilution broth method, streptococci; assay type: cell-based; settings: Mueller-Hinton broth with 5% horse blood, 18-22 hours at 35° C.; for MIC: S. pneumo GC 1894
Experimental: (§1) Evaluation of the Minimum Inhibitory Concentration of Test Compounds Against A Variety of Bacterial Strains
(§2) In this evaluation the minimal inhibitory concentration (MIC) of test compounds against Gram positive and Gram negative bacteria is performed using the microdilution broth method as recommended by the National Committee for Clinical Laboratory Standards (Approved Standards M7-A5 2000). Mueller-Hinton broth is used for the enterobacteriaceae, staphylococci and enterococci. Streptococci are also tested in Mueller-Hinton broth supplemented with 5% horse blood (LHB). Test organisms include recent clinical isolates that are resistant to methicillin, penicillin and/or vancomycin. […].

staphylococci = experiment: Minimum inhibitory concentration, microdilution broth method, staphylococci; assay type: cell-based; settings: Mueller-Hinton broth, 18-22 hours at 35° C.; for MIC: Staphylococcus aureus
Experimental: as §1, §2

[1] = target: E. coli Uridine-diphosphate-N-acetvimuramoyl: L-alanine lipase, MurC (Escherichia coli, UniProt P17952); experiment: Inhibitory activity against MurC (E. coli); assay type: biochemical
Experimental: S. aureus and E. coli Uridine-diphosphate-N-acetvimuramoyl: L-alanine lipase, MurC
The buffer is prepared from aqueous reagents with the following final concentrations: 83 mM Tris/HCl (pH 8.0), 50 mM MgC12, and 2 mM ATP.
(§3) Preparation of Enzyme Solution:
A 1 mg/mL stock solution of MurC is prepared in a buffer consisting of 20 mM Tris/HCl (pH 8.5) with 2.5 μM BME. The stock solution is further diluted with the buffer to give a final enzyme concentration of 100 μg/mL for the E. coli stock solution and 70 μg/mL for the S. aureus stock solution.
(§4) Preparation of Test Compound Solutions:
(§5) All test solutions are prepared in DMSO as 10 mg/mL, then diluted with 50 mM Tris/HCl (pH 8.5) to 100 μg/mL.
(§6) Preparation of Stop Solution:
The stop solution is prepared by stirring 1 part 4.2% ammonium molydbate in 4N HCl with 2 parts 0.045% malachite green for 30 min.
In this evaluation, the inhibitory activity of a test compound against MurC, the enzyme which catalyzes the third step of bacterial cell wall bioxynthesis is determined. Experiments are performed by adding 2.5 μl buffer, 2.5 μl 0.5M NH4SO2, 5 μl 2 μM L-Ala, 5 μl enzyme solution and 6.5 μl test compound solution to each well in a 96-well microplate. After a pre-incubation period of 10 mins. at 23° C., 3.75 μl of a 0.75 μM solution of UDP-MurNac is added to each well. Following an incubation period of 10 mins. at 37° C., 210 μl stop solution and 50 μl of a 34% w/v sodium citrate solution are added and color is allowed to develop for 10 mins. at 23° C. (Lanzetta et al., Analytical Biochemistry, 1979, 95) Optical density readings are taken at 660 nm using a Molecular Devices Spectra Max 250 with Soft Max software. Controls are performed using the same procedure and omitting the addition of UDP-MurNac.
Using these values the IC50 is determined by linear regression analysis.

[2] = target: E. coli Enopyruvyl-UPD-N-acetylglucosamine reductase, Mur B (Escherichia coli, UniProt P08373); experiment: biochemical; settings: (E) E. coli enzyme; for IC50: read-out: MurB IC50 (converted)
Experimental: S. aureus and E. coli Enopyruvyl-UPD-N-acetylglucosamine reductase, Mur B
Preparation of Tris/BME buffer:
Dilute 17.5 uL of aqueous 5 mM BME (2-mercaptoethanol) to 50 mL with 50 mM Tris/HCl (pH 8.0).
as §3
Dilute aqueous MurB stock solution (0.94 mg/mL) with 200 parts 50 mM Tris/2-BME buffer.
Synthesis of Substrate for MurB (MurA Product EP-UDP-GluNAc):
A mixture of 13 mg UDP-N-acetylglucosamine and 5.5 mg phosphoenolpyruvate are dissolved in 10 mL Tris/BME buffer forming 2 mM concentrations of each reagent in solution.
Preparation of Assay Buffer:
The assay buffer is prepared in water from reagents with the following final concentrations: 100 mM Tris/HCl (pH 8.0), 200 μM NADPH, 100 μM MurB substrate, 10 μM 2-mercaptoethanol, and 10 μM KCl.
Experiments are performed by adding 20 μL of a solution of test compound in a mixture of dimethylsulfoxide and water and 30 μL of enzyme solution to a well. After a pre-incubation period of 20 mins. at 23° C., 50 μL of Tris/BME buffer and 100 μL of assay buffer are added. […] Controls are performed using the same procedure and employing 20 μL of a blank dimethylsulfonide and solvent mixture in place of the test compound solution.
Using these values, the IC50 for each test compound is determined by linear regression analysis.

enterococci = experiment: Minimum inhibitory concentration, microdilution broth method, enterococci; assay type: cell-based; settings: Mueller-Hinton broth, 18-22 hours at 35° C.; for MIC: Enterococcus faecalis
Experimental: as §1, §2

[3] = target: T1, S. aureus Uridine-diphosphate-N-acetylmuramoyl-L-alanine: D-glutamate liease, MurD (Staphylococcus aureus, UniProt Q2FZ92); experiment: biochemical; settings: (S) S. aureus enzyme
T1 sequence (Q2FZ92 1-449): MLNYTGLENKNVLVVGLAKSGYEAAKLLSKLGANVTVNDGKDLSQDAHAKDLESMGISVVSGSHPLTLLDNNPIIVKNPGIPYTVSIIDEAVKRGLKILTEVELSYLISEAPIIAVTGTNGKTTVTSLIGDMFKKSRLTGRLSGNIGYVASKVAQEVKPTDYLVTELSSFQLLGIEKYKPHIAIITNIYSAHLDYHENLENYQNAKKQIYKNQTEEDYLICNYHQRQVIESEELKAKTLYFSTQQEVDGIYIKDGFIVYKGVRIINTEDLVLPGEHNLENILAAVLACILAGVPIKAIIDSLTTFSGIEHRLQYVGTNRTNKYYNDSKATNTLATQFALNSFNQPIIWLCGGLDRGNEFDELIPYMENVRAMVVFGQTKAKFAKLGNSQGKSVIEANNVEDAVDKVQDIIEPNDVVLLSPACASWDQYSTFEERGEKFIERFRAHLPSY
Experimental: (§7) S. aureus and E. coli Uridine-diphosphate-N-acetylmuramoyl-L-alanine: D-glutamate liease, MurD
as §3, §4, §5, §6
(§8) In this evaluation, the inhibitory activity of a test compound against MurD, the enzyme which catalyzes the fourth step of bacterial cell wall biosynthesis is determined.

[4] = target: E. coli UDP-N-acetylglucosamine enolpyruvoyl transferase, MurA (Escherichia coli, UniProt P0A749); experiment: biochemical; settings: (E) E. coli enzyme
Experimental: Evaluation of the Inhibitory Activity of Test Compounds Against Enzymes which Catalyze Bacterial Cell Wall Biosynthesis
S. aureus and E. coli UDP-N-acetylglucosamine enolpyruvoyl transferase, MurA
as §3
The enzyme solution is prepared by admixing the following: 50 mM Tris/HCl pH 8.0, […] 1 M Tris, 5 mM DTT, […] 1 M DTT, 20% Glycerol 4 ml 50% Glycerol, add water to 10 ml.
as §6
A procedure similar to that described by C. […] Experiments are performed by adding a solution of test compound (in a mixture of dimethylsulfoxide and water) and an enzyme solution to a well. After a pre-incubation period of 10 mintues at 37° C., Tris/BME buffer and assay buffer are added. A start point optical density (OD0) reading is taken at 340 nm immediately following the addition of assay buffer. After incubation for 1 hr at 37° C., the stop solution is added and the color is allowed to develop for 30 minutes.

[5] = target: E. coli Uridine-diphosphate-N-acetylmuramoyl-L-alanine: D-glutamate liease, MurD (Escherichia coli, UniProt P14900); experiment: biochemical; settings: (E) E. coli enzyme
Experimental: as §7
The buffer is prepared from aqueous reagents with the following final concentrations: 83 mM Tris/HCl (pH 8.0), 50 mM MgCl2, and 2 mM ATP.
as §3, §4, §5, §6, §8

[6] = S. aureus GC 1131, read-out: MIC S. aureus GC 1131
[7] = S. aureus GC 4543, read-out: MIC S. aureus GC 4543
[8] = E. faecalis GC 2242, read-out: MIC E. faecalis GC 2242
[9] = E. faecalis GC 4555, read-out: MIC E. faecalis GC 4555
[10] = (E) E. coli enzyme, read-out: MurC IC50 (converted)

Sequence of E. coli Uridine-diphosphate-N-acetvimuramoyl: L-alanine lipase, MurC (P17952 whole entry): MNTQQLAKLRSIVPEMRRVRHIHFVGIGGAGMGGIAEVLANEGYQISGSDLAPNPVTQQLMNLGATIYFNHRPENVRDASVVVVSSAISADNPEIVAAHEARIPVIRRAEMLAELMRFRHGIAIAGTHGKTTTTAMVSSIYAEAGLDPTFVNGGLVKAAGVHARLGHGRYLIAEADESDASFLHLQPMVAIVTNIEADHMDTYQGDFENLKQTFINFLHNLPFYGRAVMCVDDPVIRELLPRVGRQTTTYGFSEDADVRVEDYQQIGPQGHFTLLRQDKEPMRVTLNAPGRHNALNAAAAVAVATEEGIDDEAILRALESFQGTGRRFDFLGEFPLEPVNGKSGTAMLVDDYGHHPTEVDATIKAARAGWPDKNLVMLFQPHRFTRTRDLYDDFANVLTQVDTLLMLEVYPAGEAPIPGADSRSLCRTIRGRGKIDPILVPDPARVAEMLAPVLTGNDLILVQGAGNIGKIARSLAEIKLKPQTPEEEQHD
Sequence of E. coli Enopyruvyl-UPD-N-acetylglucosamine reductase, Mur B (P08373 whole entry): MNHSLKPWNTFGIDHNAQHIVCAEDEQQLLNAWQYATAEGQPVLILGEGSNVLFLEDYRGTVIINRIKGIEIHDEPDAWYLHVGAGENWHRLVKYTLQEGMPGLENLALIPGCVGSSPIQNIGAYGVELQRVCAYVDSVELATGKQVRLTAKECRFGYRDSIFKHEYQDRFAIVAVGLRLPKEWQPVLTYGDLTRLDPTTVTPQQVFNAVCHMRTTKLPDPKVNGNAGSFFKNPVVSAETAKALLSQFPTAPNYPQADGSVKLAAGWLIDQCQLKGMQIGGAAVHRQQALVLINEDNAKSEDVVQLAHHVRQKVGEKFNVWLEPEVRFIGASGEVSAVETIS
Sequence of E. coli UDP-N-acetylglucosamine enolpyruvoyl transferase, MurA (P0A749 whole entry): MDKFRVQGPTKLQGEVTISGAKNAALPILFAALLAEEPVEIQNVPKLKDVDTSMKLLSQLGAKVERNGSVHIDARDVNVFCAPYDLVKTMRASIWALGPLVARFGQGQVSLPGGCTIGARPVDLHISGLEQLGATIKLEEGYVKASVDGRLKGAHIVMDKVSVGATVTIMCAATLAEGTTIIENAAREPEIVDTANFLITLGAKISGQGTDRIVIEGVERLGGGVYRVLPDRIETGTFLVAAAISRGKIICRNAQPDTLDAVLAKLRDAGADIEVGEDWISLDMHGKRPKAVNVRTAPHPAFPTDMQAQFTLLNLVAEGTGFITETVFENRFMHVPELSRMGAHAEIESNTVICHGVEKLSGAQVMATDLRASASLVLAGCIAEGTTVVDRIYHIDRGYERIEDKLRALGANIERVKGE
Sequence of E. coli Uridine-diphosphate-N-acetylmuramoyl-L-alanine: D-glutamate liease, MurD (P14900 whole entry): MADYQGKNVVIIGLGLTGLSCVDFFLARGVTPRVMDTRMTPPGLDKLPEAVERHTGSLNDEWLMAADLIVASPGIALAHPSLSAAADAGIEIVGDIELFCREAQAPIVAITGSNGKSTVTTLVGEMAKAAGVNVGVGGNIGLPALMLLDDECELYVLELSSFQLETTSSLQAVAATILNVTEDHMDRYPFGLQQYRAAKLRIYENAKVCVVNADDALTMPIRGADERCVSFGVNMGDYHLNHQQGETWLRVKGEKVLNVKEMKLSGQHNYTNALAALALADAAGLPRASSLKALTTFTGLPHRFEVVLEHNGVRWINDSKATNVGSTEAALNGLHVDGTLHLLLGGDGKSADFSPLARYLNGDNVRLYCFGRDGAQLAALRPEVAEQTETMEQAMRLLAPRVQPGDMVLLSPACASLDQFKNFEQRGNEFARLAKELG

Row | SMILES | MIC (Streptococci) [µg/mL] | MIC (staphylococci; [6]) [µg/mL] | MIC (staphylococci; [7]) [µg/mL] | MurC IC50 ([1]; (E) E. coli enzyme) | MurB IC50 [2] | MIC (enterococci; [8]) [µg/mL] | MIC (enterococci; [9]) [µg/mL] | IC50 [3] [µM] | MurA IC50 [4] | IC50 [5] [µM] | IC50 [4] [µM] | IC50 ([1]; MurC IC50, (E) E. coli enzyme) [µM] | IC50 [2] [µM] | IC50 [1, 10] [µM] | MIC S. pneumo GC 1894 (Streptococci) [µg/mL] | MIC S. aureus GC 1131 (staphylococci; S. aureus GC 1131) [µg/mL] | MIC S. aureus GC 4543 (staphylococci; S. aureus GC 4543) [µg/mL] | MIC E. faecalis GC 2242 (enterococci; E. faecalis GC 2242) [µg/mL] | MIC E. faecalis GC 4555 (enterococci; E. faecalis GC 4555) [µg/mL]
1 | O=C1O/C(=C\c2ccc3ccccc3c2)C(O)=C1c1cccc(C(F)(F)F)c1 [Example 8] | 0.25 (≈ 0.654 µM) | 8 (≈ 20.9 µM) | 8 (≈ 20.9 µM) | 6 (E) μg/mL | 11 (E) μg/mL | 4 (≈ 10.5 µM) | 16 (≈ 41.8 µM) | – | – | – | – | – | – | – | – | – | – | – | –
2 | O=C1O/C(=C\c2ccc(-c3ccccc3)cc2)C(O)=C1c1ccc2ccccc2c1 [Example 45] | 2 (≈ 5.12 µM) | 16 (≈ 41 µM) | 4 (≈ 10.2 µM) | 10 (E) μg/mL | 2 (E) μg/mL | 4 (≈ 10.2 µM) | 8 (≈ 20.5 µM) | > 64 | – | – | – | – | – | – | – | – | – | – | –
3 | O=C1O/C(=C\c2ccc(-c3ccccc3)cc2)C(O)=C1c1cccc2ccccc12 [Example 50] | 4 (≈ 10.2 µM) | 8 (≈ 20.5 µM) | 4 (≈ 10.2 µM) | 9 (E) μg/mL | – | 8 (≈ 20.5 µM) | 32 (≈ 82 µM) | – | 16 (E) μg/mL | – | – | – | – | – | – | – | – | – | –
4 | O=C1O/C(=C\c2ccccc2C(F)(F)F)C(O)=C1c1ccc(-c2ccccc2)cc1 [Example 99, 3-[1.1′-Biphenyl]-4-yl-4-hydroxy-5-{(Z)-[2-(trifluoromethyl)benzylidene]}-5H-furan-2-one] | 0.25 (≈ 0.612 µM) | 4 (≈ 9.79 µM) | 2 (≈ 4.9 µM) | – | – | 4 (≈ 9.79 µM) | 16 (≈ 39.2 µM) | – | – | > 61.2 | 9.79 | 9.79 | 14.7 | – | – | – | – | – | –
5 | O=C1O/C(=C\c2cc(F)cc(C(F)(F)F)c2)C(O)=C1c1cccc(-c2ccccc2)c1 [Example 109] | 0.25 (≈ 0.586 µM) | 2 (≈ 4.69 µM) | 2 (≈ 4.69 µM) | – | – | 1 (≈ 2.35 µM) | 4 (≈ 9.38 µM) | – | – | > 58.6 | – | – | 9.38 | 23.5 | – | – | – | – | –
6 | O=C1O/C(=C\c2cc(F)cc(C(F)(F)F)c2)C(O)=C1c1ccc(-c2ccccc2)c(F)c1 [Example 110] | 0.25 (≈ 0.563 µM) | 2 (≈ 4.5 µM) | 2 (≈ 4.5 µM) | – | – | 1 (≈ 2.25 µM) | 4 (≈ 9 µM) | – | – | 42.8 | 15.8 | – | 11.3 | 20.3 | – | – | – | – | –
7 | O=C1O/C(=C\c2cc(F)cc(C(F)(F)F)c2)C(O)=C1c1cccc(-c2ccccc2)c1 [Example 112] | – | – | – | – | – | – | – | – | – | > 58.6 | – | – | 11.7 | 23.5 | 0.25 (≈ 0.586 µM) | 2 (≈ 4.69 µM) | 4 (≈ 9.38 µM) | 2 (≈ 4.69 µM) | 8 (≈ 18.8 µM)
8 | O=C1O/C(=C\c2cc(C(F)(F)F)ccc2F)C(O)=C1c1cccc(-c2ccccc2)c1 [Example 121] | 0.5 (≈ 1.17 µM) | 4 (≈ 9.38 µM) | 2 (≈ 4.69 µM) | – | – | 8 (≈ 18.8 µM) | 16 (≈ 37.5 µM) | – | – | – | 21.1 | – | 16.4 | 21.1 | – | – | – | – | –
9 | O=C1O/C(=C\c2cccc(C(F)(F)F)c2)C(O)=C1c1ccc(-c2ccccc2)cc1 [Example 130] | 0.5 (≈ 1.22 µM) | 4 (≈ 9.79 µM) | 4 (≈ 9.79 µM) | 8 (E) μg/mL | – | 8 (≈ 19.6 µM) | 4 (≈ 9.79 µM) | – | 17 (E) μg/mL | – | – | – | 22 | – | – | – | – | – | –
10 | O=C1O/C(=C\c2ccc(Cl)cc2)C(O)=C1c1ccc(-c2ccccc2)cc1 [Example 139] | 1 (≈ 2.67 µM) | 16 (≈ 42.7 µM) | 16 (≈ 42.7 µM) | 16 (E) μg/mL | – | 4 (≈ 10.7 µM) | 8 (≈ 21.3 µM) | – | – | – | – | – | 16 | – | – | – | – | – | –
